Laboratory results published in ChEMBL document CHEMBL1201862, “PubChem BioAssay data set” (2004).
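A five-concentration, 48-hour dose response in 96-well plates underlies each endpoint, interpolated linearly between surrounding concentrations. Abbreviation: GI50, concentration required for 50% inhibition of growth.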 Calls of active or inactive are those of the source. Cut-off read from the data, not from the text of the source: active = GI50 up to about 1.1 µM and inactive = higher.

Tests used:
Assay in all cases: NCI-60 cell line screen, 48 h
786-0 = test system: 786-0
A498 = test system: A498
A549 = test system: A549
ACHN = test system: ACHN
CAKI-1 = test system: CAKI-1
CCRF-CEM = test system: CCRF-CEM
COLO 205 = test system: COLO 205
DLD-1 = test system: DLD-1
DMS-114 = test system: DMS-114
DMS-273 = test system: DMS-273
EKVX = test system: EKVX
HCC 2998 = test system: HCC 2998
HCT-116 = test system: HCT-116
HCT-15 = test system: HCT-15
HL-60 = test system: HL-60
HOP-18 = test system: HOP-18
HOP-62 = test system: HOP-62
HT-29 = test system: HT-29
IGROV-1 = test system: IGROV-1
K562 = test system: K562
KM-20L2 = test system: KM-20L2
KM12 = test system: KM12
LOX IMVI = test system: LOX IMVI
LXFL 529 = test system: LXFL 529
M14 = test system: M14
M19-MEL = test system: M19-MEL
MOLT-4 = test system: MOLT-4
Malme-3M = test system: Malme-3M
NCI-H226 = test system: NCI-H226
NCI-H23 = test system: NCI-H23
NCI-H460 = test system: NCI-H460
NCI-H522 = test system: NCI-H522
OVCAR-3 = test system: OVCAR-3
OVCAR-4 = test system: OVCAR-4
OVCAR-5 = test system: OVCAR-5
OVCAR-8 = test system: OVCAR-8
RPMI-8226 = test system: RPMI-8226
RXF 631 = test system: RXF 631
SF-268 = test system: SF-268
SF-295 = test system: SF-295
SK-MEL-28 = test system: SK-MEL-28
SK-MEL-2 = test system: SK-MEL-2
SK-MEL-5 = test system: SK-MEL-5
SK-OV-3 = test system: SK-OV-3
SN12C = test system: SN12C
SNB-19 = test system: SNB-19
SNB-75 = test system: SNB-75
SNB-78 = test system: SNB-78
SW-620 = test system: SW-620
TK-10 = test system: TK-10
U-251 = test system: U-251
UACC-257 = test system: UACC-257
UACC-62 = test system: UACC-62
UO-31 = test system: UO-31
HOP-92 = test system: HOP-92
SF-539 = test system: SF-539
SR = test system: SR
XF498 = test system: XF498
RXF 393 = test system: RXF 393

With `O=C(NCCCCNc1cccccc1=O)OCc1ccccc1` the GI50 (786-0) was > 100 µM (inactive), the GI50 (A498) was > 100 µM (inactive) and the GI50 (A549) was > 100 µM (inactive). For the same compound, the GI50 (ACHN) was > 100 µM (inactive), the GI50 (CAKI-1) was > 100 µM (inactive) and the GI50 (CCRF-CEM) was > 100 µM (inactive). For the same compound, the GI50 (COLO 205) was > 100 µM (inactive), the GI50 (DLD-1) was > 100 µM (inactive) and the GI50 (DMS-114) was 56.4 µM (inactive). The GI50 (DMS-273) was > 100 µM (inactive), the GI50 (EKVX) was > 100 µM (inactive) and the GI50 (HCC 2998) was > 100 µM (inactive). The GI50 (HCT-116) was > 100 µM (inactive), the GI50 (HCT-15) was over 100 µM and the GI50 (HL-60) was > 100 µM (inactive). For the same compound, the GI50 (HOP-18) was > 100 µM (inactive), the GI50 (HOP-62) was > 100 µM (inactive) and the GI50 (HT-29) was > 100 µM (inactive). For the same compound, the GI50 (IGROV-1) was > 100 µM (inactive), the GI50 (K562) was > 100 µM (inactive) and the GI50 (KM-20L2) was > 100 µM (inactive). For the same compound, the GI50 (KM12) was > 100 µM (inactive), the GI50 (LOX IMVI) was > 100 µM (inactive) and the GI50 (LXFL 529) was > 100 µM (inactive). The GI50 (M14) was > 100 µM (inactive), the GI50 (M19-MEL) was > 100 µM (inactive) and the GI50 (MOLT-4) was > 100 µM (inactive). For the same compound, the GI50 (Malme-3M) was > 100 µM (inactive), the GI50 (NCI-H226) was > 100 µM (inactive) and the GI50 (NCI-H23) was > 100 µM (inactive). The GI50 (NCI-H460) was > 100 µM (inactive), the GI50 (NCI-H522) was > 100 µM (inactive) and the GI50 (OVCAR-3) was > 100 µM (inactive). The GI50 (OVCAR-4) was > 100 µM (inactive), the GI50 (OVCAR-5) was > 100 µM (inactive) and the GI50 (OVCAR-8) was 54 µM (inactive). The GI50 (RPMI-8226) was > 100 µM (inactive), the GI50 (RXF 631) was > 100 µM (inactive) and the GI50 (SF-268) was > 100 µM (inactive). The GI50 (SF-295) was > 100 µM (inactive), the GI50 (SK-MEL-28) was > 100 µM (inactive) and the GI50 (SK-MEL-2) was > 100 µM (inactive). The GI50 (SK-MEL-5) was 48.1 µM (inactive), the GI50 (SK-OV-3) was > 100 µM (inactive) and the GI50 (SN12C) was > 100 µM (inactive). For the same compound, the GI50 (SNB-19) was > 100 µM (inactive), the GI50 (SNB-75) was > 100 µM (inactive) and the GI50 (SNB-78) was > 100 µM (inactive). For the same compound, the GI50 (SW-620) was > 100 µM (inactive), the GI50 (TK-10) was > 100 µM (inactive) and the GI50 (U-251) was > 100 µM (inactive). For the same compound, the GI50 (UACC-257) was > 100 µM (inactive), the GI50 (UACC-62) was > 100 µM (inactive) and the GI50 (UO-31) was 58.5 µM (inactive).
For `Cc1ccc(NC(=O)c2c(C)nc(=O)n3c2N(/N=C/c2ccc(Cl)cc2)CC3)cc1`, the GI50 (786-0) was 17.8 µM (inactive), the GI50 (A498) was 15.9 µM (inactive) and the GI50 (ACHN) was 16.3 µM (inactive). The GI50 (CAKI-1) was 18.2 µM (inactive), the GI50 (CCRF-CEM) was 26.9 µM (inactive) and the GI50 (COLO 205) was 21.7 µM (inactive). For the same compound, the GI50 (DLD-1) was 16.6 µM (inactive), the GI50 (DMS-114) was 16.5 µM (inactive) and the GI50 (DMS-273) was 19.2 µM (inactive). The GI50 (HCC 2998) was 17.9 µM (inactive), the GI50 (HCT-116) was 13.2 µM (inactive) and the GI50 (HL-60) was 23.1 µM (inactive). The GI50 (HOP-62) was 18.7 µM (inactive), the GI50 (HOP-92) was 20 µM (inactive) and the GI50 (IGROV-1) was 18.2 µM (inactive). For the same compound, the GI50 (K562) was 26.7 µM (inactive), the GI50 (LXFL 529) was 16.8 µM (inactive) and the GI50 (M14) was 17.1 µM (inactive). The GI50 (M19-MEL) was 19.9 µM (inactive), the GI50 (MOLT-4) was 23.8 µM (inactive) and the GI50 (Malme-3M) was 21.4 µM (inactive). For the same compound, the GI50 (NCI-H226) was 16 µM (inactive), the GI50 (NCI-H23) was 14.2 µM (inactive) and the GI50 (NCI-H522) was 10.4 µM (inactive). The GI50 (OVCAR-4) was 14.4 µM (inactive), the GI50 (RPMI-8226) was > 10 µM (inactive) and the GI50 (RXF 631) was 14.7 µM (inactive). For the same compound, the GI50 (SF-268) was 12.7 µM (inactive), the GI50 (SF-539) was 11.9 µM (inactive) and the GI50 (SK-MEL-28) was 16.3 µM (inactive). The GI50 (SK-MEL-2) was 18.7 µM (inactive), the GI50 (SK-OV-3) was 21.3 µM (inactive) and the GI50 (SN12C) was 14.7 µM (inactive). The GI50 (SNB-75) was 18.8 µM (inactive), the GI50 (SNB-78) was 19.8 µM (inactive) and the GI50 (SR) was 24.5 µM (inactive). For the same compound, the GI50 (UACC-62) was 13.4 µM (inactive), the GI50 (UO-31) was 11.7 µM (inactive) and the GI50 (XF498) was 15.6 µM (inactive).
For `CC1=C(C(=O)Nc2cccc(C(F)(F)F)c2)C(c2ccccc2F)C(C(=O)Nc2cccc(C(F)(F)F)c2)=C(C)N1`, the GI50 (786-0) was 6.49 µM (inactive), the GI50 (A498) was 9.16 µM (inactive) and the GI50 (A549) was 4.58 µM (inactive). The GI50 (ACHN) was 4.2 µM (inactive), the GI50 (CAKI-1) was 8.57 µM (inactive) and the GI50 (CCRF-CEM) was 3.09 µM (inactive). For the same compound, the GI50 (COLO 205) was 4.82 µM (inactive), the GI50 (DLD-1) was 6.21 µM (inactive) and the GI50 (DMS-114) was 3.33 µM (inactive). For the same compound, the GI50 (EKVX) was 3.94 µM (inactive), the GI50 (HCC 2998) was 3.31 µM (inactive) and the GI50 (HCT-116) was 3.63 µM (inactive). The GI50 (HL-60) was 2.69 µM (inactive), the GI50 (HOP-62) was 12.9 µM (inactive) and the GI50 (HOP-92) was 2.8 µM (inactive). The GI50 (HT-29) was 3.66 µM (inactive), the GI50 (IGROV-1) was 11.3 µM (inactive) and the GI50 (K562) was 3.96 µM (inactive). The GI50 (KM-20L2) was 4.51 µM (inactive), the GI50 (KM12) was 3.74 µM (inactive) and the GI50 (LOX IMVI) was 5.37 µM (inactive). For the same compound, the GI50 (LXFL 529) was 5.57 µM (inactive), the GI50 (M14) was 4.59 µM (inactive) and the GI50 (M19-MEL) was 7.45 µM (inactive). For the same compound, the GI50 (MOLT-4) was 2.6 µM (inactive), the GI50 (Malme-3M) was 7.08 µM (inactive) and the GI50 (NCI-H226) was 4.38 µM (inactive). For the same compound, the GI50 (NCI-H23) was 4.59 µM (inactive), the GI50 (NCI-H460) was 4.23 µM (inactive) and the GI50 (NCI-H522) was 4.79 µM (inactive). For the same compound, the GI50 (OVCAR-3) was 4.66 µM (inactive), the GI50 (OVCAR-4) was 3.08 µM (inactive) and the GI50 (OVCAR-5) was 10.5 µM (inactive). For the same compound, the GI50 (OVCAR-8) was 9.62 µM (inactive), the GI50 (RPMI-8226) was 2.58 µM (inactive) and the GI50 (RXF 393) was 3.57 µM (inactive). For the same compound, the GI50 (RXF 631) was 10 µM (inactive), the GI50 (SF-268) was 6.52 µM (inactive) and the GI50 (SF-295) was 6.52 µM (inactive). The GI50 (SF-539) was 8.75 µM (inactive), the GI50 (SK-MEL-28) was 11 µM (inactive) and the GI50 (SK-MEL-2) was 3.03 µM (inactive). For the same compound, the GI50 (SK-MEL-5) was 5.43 µM (inactive), the GI50 (SK-OV-3) was 10.4 µM (inactive) and the GI50 (SN12C) was 7.96 µM (inactive). For the same compound, the GI50 (SNB-19) was 7.16 µM (inactive), the GI50 (SNB-75) was 9.57 µM (inactive) and the GI50 (SNB-78) was 13.9 µM (inactive). For the same compound, the GI50 (SW-620) was 7.08 µM (inactive), the GI50 (TK-10) was 8.26 µM (inactive) and the GI50 (U-251) was 8.69 µM (inactive). The GI50 (UACC-257) was 8.65 µM (inactive), the GI50 (UO-31) was 4.83 µM (inactive) and the GI50 (XF498) was 2.09 µM (inactive).
